Reference: patent publication US8067042B1 (Mutual Pharmaceutical Company, Inc., priority 2007, dated 2011)
Several values for one entry are separate records, joined by “and”; a condition that tells them apart may be missing. Identical values can stand only once. Like-named read-outs stand apart in the source and are kept apart here. Marks after values point to notes of the source that are not given here.

Experiments:
[1] = target: T1, Human CYP1A2 + P450 Reductase SUPERSOMES (Homo sapiens, UniProt P05177)
T1 sequence (P05177 2-516 limits assumed): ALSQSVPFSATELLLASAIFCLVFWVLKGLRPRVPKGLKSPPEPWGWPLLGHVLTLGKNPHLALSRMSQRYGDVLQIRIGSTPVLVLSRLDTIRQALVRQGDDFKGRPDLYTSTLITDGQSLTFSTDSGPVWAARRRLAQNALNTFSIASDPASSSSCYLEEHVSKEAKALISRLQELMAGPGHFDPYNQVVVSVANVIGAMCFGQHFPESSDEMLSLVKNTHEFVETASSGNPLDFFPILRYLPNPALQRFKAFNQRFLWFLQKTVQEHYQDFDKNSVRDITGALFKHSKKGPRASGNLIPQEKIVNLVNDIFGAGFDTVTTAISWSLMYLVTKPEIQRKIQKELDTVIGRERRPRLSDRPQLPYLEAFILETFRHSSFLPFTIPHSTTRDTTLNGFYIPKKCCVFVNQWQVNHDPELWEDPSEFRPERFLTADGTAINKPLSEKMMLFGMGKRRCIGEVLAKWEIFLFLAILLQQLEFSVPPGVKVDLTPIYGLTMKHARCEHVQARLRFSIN
Experimental: (§1) In this study, individual CYP isoforms expressed from human cDNA and P450 reductase cDNA were used (BD SUPERSOMES™ Enzymes, BD Biosciences Discovery Labware, Woburn, Mass.). SUPERSOMES™ are microsomes from baculovirus-infected insect cells containing singly expressed recombinant human CYP enzymes.
(§2) After a 5-minute preincubation, an appropriate amount of the appropriate buffer was added to the reaction mixtures to make the final volume of 0.5 mL. The incubations were continued for 60 minutes.
(§3) All incubation reactions were terminated by adding 0.5 mL methanol, and the samples were transferred to cryovials and stored at −70±10° C. until analysis.

[2] = target: T2, Human CYP2B6 + P450 Reductase + Cytochrome b5 SUPERSOMES (Homo sapiens, UniProt P20813)
T2 sequence (P20813 1-491): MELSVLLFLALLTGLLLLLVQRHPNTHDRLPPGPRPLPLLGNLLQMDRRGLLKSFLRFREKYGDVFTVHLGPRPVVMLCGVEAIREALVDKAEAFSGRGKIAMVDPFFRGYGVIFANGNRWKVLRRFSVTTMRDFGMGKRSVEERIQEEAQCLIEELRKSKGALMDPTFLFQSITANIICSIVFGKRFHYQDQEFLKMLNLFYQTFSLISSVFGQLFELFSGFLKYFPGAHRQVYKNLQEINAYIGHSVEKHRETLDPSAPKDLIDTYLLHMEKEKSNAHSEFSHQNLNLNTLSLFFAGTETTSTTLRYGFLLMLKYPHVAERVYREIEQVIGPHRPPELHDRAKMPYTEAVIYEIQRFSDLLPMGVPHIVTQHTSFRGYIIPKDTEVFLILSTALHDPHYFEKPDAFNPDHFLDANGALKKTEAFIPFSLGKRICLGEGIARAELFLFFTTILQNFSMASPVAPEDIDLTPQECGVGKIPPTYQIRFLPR
Experimental: as §1, §2, §3

[3] = target: Human CYP2D6*1 + P450 Reductase SUPERSOMES (Homo sapiens, UniProt P10635)
Experimental: as §1, §2, §3

[4] = target: Human CYP2E1 + P450 Reductase + Cytochrome b5 SUPERSOMES (Homo sapiens, UniProt P05181)
Sequence of Human CYP2E1 + P450 Reductase + Cytochrome b5 SUPERSOMES (P05181 whole entry): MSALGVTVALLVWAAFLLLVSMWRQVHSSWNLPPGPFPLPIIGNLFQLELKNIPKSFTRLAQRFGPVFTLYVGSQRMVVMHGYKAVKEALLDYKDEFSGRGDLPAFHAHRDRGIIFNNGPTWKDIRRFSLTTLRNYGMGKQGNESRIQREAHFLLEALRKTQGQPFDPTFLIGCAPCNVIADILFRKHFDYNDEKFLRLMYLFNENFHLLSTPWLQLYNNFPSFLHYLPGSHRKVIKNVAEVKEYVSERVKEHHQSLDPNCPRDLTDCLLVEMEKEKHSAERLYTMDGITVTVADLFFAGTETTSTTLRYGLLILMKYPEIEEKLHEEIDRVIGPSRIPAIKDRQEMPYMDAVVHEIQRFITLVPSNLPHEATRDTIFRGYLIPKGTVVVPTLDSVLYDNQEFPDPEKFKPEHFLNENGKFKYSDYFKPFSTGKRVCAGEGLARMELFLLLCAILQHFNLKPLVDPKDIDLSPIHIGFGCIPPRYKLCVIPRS
Experimental: as §1, §2, §3

[5] = target: Human CYP3A4 + P450 Reductase + Cytochrome b5 SUPERSOMES (Homo sapiens, UniProt P08684)
Sequence of Human CYP3A4 + P450 Reductase + Cytochrome b5 SUPERSOMES (P08684 whole entry): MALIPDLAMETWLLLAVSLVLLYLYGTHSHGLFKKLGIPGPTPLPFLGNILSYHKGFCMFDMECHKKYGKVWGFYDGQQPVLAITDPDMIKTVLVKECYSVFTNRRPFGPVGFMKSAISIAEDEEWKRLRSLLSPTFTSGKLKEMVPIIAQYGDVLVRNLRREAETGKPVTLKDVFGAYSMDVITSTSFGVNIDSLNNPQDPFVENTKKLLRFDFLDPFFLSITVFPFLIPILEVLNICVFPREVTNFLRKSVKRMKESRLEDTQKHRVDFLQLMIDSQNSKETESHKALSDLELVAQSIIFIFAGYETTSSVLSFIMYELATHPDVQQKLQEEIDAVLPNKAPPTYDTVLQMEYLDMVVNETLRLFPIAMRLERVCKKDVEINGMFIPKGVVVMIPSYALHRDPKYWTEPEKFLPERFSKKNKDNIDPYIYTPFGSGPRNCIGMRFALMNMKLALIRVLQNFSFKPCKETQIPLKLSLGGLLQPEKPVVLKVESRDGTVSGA
Experimental: as §1, §2, §3

[6] = 5 μM, 5 pmol enzyme, listed as megestrol acetate
[7] = 5 μM, 20 pmol enzyme, listed as megestrol acetate
[8] = 50 μM, 5 pmol enzyme, listed as megestrol acetate
[9] = 50 μM, 20 pmol enzyme, listed as megestrol acetate

CC(=O)O[C@]1(C(C)=O)CC[C@H]2[C@@H]3C=C(C)C4=CC(=O)CC[C@]4(C)[C@H]3CC[C@@]21C [Megestrol Acetate, 17 α-acetyloxy-6-methylpregna-4,6-diene-3,20-dione]
Individual Raw Data Observed ([1]; 5 μM, 5 pmol enzyme): 2.044 µM and 2.183 µM and 2.216 µM | Percent of Parent Disappearance Individual ([1]; 5 μM, 5 pmol enzyme): −2.76% and −9.79% and −11.4% | Percent of Parent Disappearance Mean ± SD ([1]; 5 μM, 5 pmol enzyme): −7.99 ± 4.60% | Percent of Parent Disappearance Mean ± SD [1, 6]: no disappearance of the substrate was detected | Individual Raw Data Observed ([1]; 5 μM, 20 pmol enzyme): 2.309 µM and 2.295 µM and 2.254 µM | Percent of Parent Disappearance Individual ([1]; 5 μM, 20 pmol enzyme): 5.51% and 6.07% and 7.78% | Percent of Parent Disappearance Mean ± SD ([1]; 5 μM, 20 pmol enzyme): 6.45 ± 1.18% | Percent of Parent Disappearance Mean ± SD [1, 7]: 6.45±1.18% | Individual Raw Data Observed ([1]; 50 μM, 5 pmol enzyme): 20.03 μM (2×) and 19.46 μM | Percent of Parent Disappearance Individual ([1]; 50 μM, 5 pmol enzyme): −5.05% and −5.02% and −2.05% | Percent of Parent Disappearance Mean ± SD ([1]; 50 μM, 5 pmol enzyme): −4.04 ± 1.72% | Percent of Parent Disappearance Mean ± SD [1, 8]: no disappearance of the substrate was detected | Individual Raw Data Observed ([1]; 50 μM, 20 pmol enzyme): 19.6 µM and 20.86 µM and 20.65 µM | Percent of Parent Disappearance Individual ([1]; 50 μM, 20 pmol enzyme): 11.0% and 5.29% and 6.24% | Percent of Parent Disappearance Mean ± SD ([1]; 50 μM, 20 pmol enzyme): 7.51 ± 3.06% | Percent of Parent Disappearance Mean ± SD [1, 9]: 7.51±3.06% | Individual Raw Data Observed ([2]; 5 μM, 5 pmol enzyme): 2.221 µM and 2.3 µM and 2.31 µM | Percent of Parent Disappearance Individual ([2]; 5 μM, 5 pmol enzyme): −0.459% and −4.00% and −4.49% | Percent of Parent Disappearance Mean ± SD ([2]; 5 μM, 5 pmol enzyme): −2.98 ± 2.20% | Percent of Parent Disappearance Mean ± SD [2, 6]: 2.98±2.20% | Individual Raw Data Observed ([2]; 5 μM, 20 pmol enzyme): 2.474 µM and 2.381 µM and 2.385 µM | Percent of Parent Disappearance Individual ([2]; 5 μM, 20 pmol enzyme): −0.257% and 3.52% and 3.37% | Percent of Parent Disappearance Mean ± SD ([2]; 5 μM, 20 pmol enzyme): 2.21 ± 2.14% | Percent of Parent Disappearance Mean ± SD [2, 7]: 2.21±2.14% | Individual Raw Data Observed ([2]; 50 μM, 5 pmol enzyme): 20.88 µM and 21.85 µM and 25.99 µM | Percent of Parent Disappearance Individual ([2]; 50 μM, 5 pmol enzyme): 3.63% and −0.862% and −20.0% | Percent of Parent Disappearance Mean ± SD ([2]; 50 μM, 5 pmol enzyme): −5.73 ± 12.5% | Percent of Parent Disappearance Mean ± SD [2, 8]: 5.73±12.5% | Individual Raw Data Observed ([2]; 50 μM, 20 pmol enzyme): 21.46 µM and 22.47 µM and 22.35 µM | Percent of Parent Disappearance Mean ± SD ([2]; 50 μM, 20 pmol enzyme): 2.53 ± 2.43% | Percent of Parent Disappearance Mean ± SD [2, 9]: 2.53±2.43% | Individual Raw Data Observed ([3]; 5 μM, 5 pmol enzyme): 1.94 µM and 2.747 µM and 2.056 µM | Percent of Parent Disappearance Mean ± SD ([3]; 5 μM, 5 pmol enzyme): −13.6 ± 022.0% | Percent of Parent Disappearance Mean ± SD [3, 6]: no substrate disappearance was detected | Individual Raw Data Observed ([3]; 5 μM, 20 pmol enzyme): 2.325 µM and 2.386 µM and 2.39 µM | Percent of Parent Disappearance Individual ([3]; 5 μM, 20 pmol enzyme): 4.68% and 2.15% and 2.01% | Percent of Parent Disappearance Mean ± SD ([3]; 5 μM, 20 pmol enzyme): 2.95 ± 1.50% | Percent of Parent Disappearance Mean ± SD [3, 7]: 2.95±2.46% | Individual Raw Data Observed ([3]; 50 μM, 5 pmol enzyme): 18.2 µM and 22.44 µM and 18.03 µM | Percent of Parent Disappearance Individual ([3]; 50 μM, 5 pmol enzyme): −3.00% and −27.0% and −2.03% | Percent of Parent Disappearance Mean ± SD [3, 8]: no substrate disappearance was detected | Individual Raw Data Observed ([3]; 50 μM, 20 pmol enzyme): 12.44 µM and 13.43 µM and 12.62 µM | Percent of Parent Disappearance Individual ([3]; 50 μM, 20 pmol enzyme): 1.88% and −5.91% and 0.449% | Percent of Parent Disappearance Mean ± SD ([3]; 50 μM, 20 pmol enzyme): −1.19 ± 04.14% | Percent of Parent Disappearance Mean ± SD [3, 9]: no substrate disappearance was detected | Individual Raw Data Observed ([4]; 5 μM, 5 pmol enzyme): 2.008 µM and 2.126 µM and 2.034 µM | Percent of Parent Disappearance Individual ([4]; 5 μM, 5 pmol enzyme): 20.4% and 15.8% and 19.4% | Percent of Parent Disappearance Mean ± SD ([4]; 5 μM, 5 pmol enzyme): 18.5 ± 02.46% | Percent of Parent Disappearance Mean ± SD [4, 6]: 18.5±2.46% | Individual Raw Data Observed ([4]; 5 μM, 20 pmol enzyme): 1.473 µM and 1.491 µM and 1.693 µM | Percent of Parent Disappearance Individual ([4]; 5 μM, 20 pmol enzyme): −1.62% and −2.86% and −16.8% | Percent of Parent Disappearance Mean ± SD ([4]; 5 μM, 20 pmol enzyme): −7.09 ± 8.42% | Percent of Parent Disappearance Mean ± SD [4, 7]: 7.09±8.42% | Individual Raw Data Observed ([4]; 50 μM, 5 pmol enzyme): 21.97 µM and 17.04 µM and 17.99 µM | Percent of Parent Disappearance Mean ± SD ([4]; 50 μM, 5 pmol enzyme): −10.5 ± 15.2% | Percent of Parent Disappearance Mean ± SD [4, 8]: 10.5±15.2% | Individual Raw Data Observed ([4]; 50 μM, 20 pmol enzyme): 21.04 µM and 21.41 µM and 21.74 µM | Percent of Parent Disappearance Individual ([4]; 50 μM, 20 pmol enzyme): −1.09% and −2.83% and −4.46% | Percent of Parent Disappearance Mean ± SD ([4]; 50 μM, 20 pmol enzyme): −2.79 ± 1.69% | Percent of Parent Disappearance Mean ± SD [4, 9]: 2.79±1.69% | Individual Raw Data Observed ([5]; 5 μM, 5 pmol enzyme): 0.8008 µM and 0.7908 µM and 0.8634 µM | Percent of Parent Disappearance Individual ([5]; 5 μM, 5 pmol enzyme): 58.1% and 58.6% and 54.8% | Percent of Parent Disappearance Mean ± SD ([5]; 5 μM, 5 pmol enzyme): 57.2 ± 02.06% | Percent of Parent Disappearance Mean ± SD [5, 6]: 57.2±2.06% | Individual Raw Data Observed ([5]; 5 μM, 20 pmol enzyme): 0.00000 ^a μM | Percent of Parent Disappearance Individual ([5]; 5 μM, 20 pmol enzyme): >93.6% | Percent of Parent Disappearance Mean ± SD ([5]; 5 μM, 20 pmol enzyme): >93.6 ± 0.000% | Percent of Parent Disappearance Mean ± SD [5, 7]: > 93.6±0.000% | Individual Raw Data Observed ([5]; 50 μM, 5 pmol enzyme): 14.3 µM and 14.66 µM and 14.98 µM | Percent of Parent Disappearance Individual ([5]; 50 μM, 5 pmol enzyme): 20.9% and 18.9% and 17.1% | Percent of Parent Disappearance Mean ± SD ([5]; 50 μM, 5 pmol enzyme): 18.9 ± 1.90% | Percent of Parent Disappearance Mean ± SD [5, 8]: 18.9±1.90% | Individual Raw Data Observed ([5]; 50 μM, 20 pmol enzyme): 5.336 µM and 5.631 µM and 6.813 µM | Percent of Parent Disappearance Individual ([5]; 50 μM, 20 pmol enzyme): 73.5% and 72.0% and 66.1% | Percent of Parent Disappearance Mean ± SD ([5]; 50 μM, 20 pmol enzyme): 70.5 ± 3.89% | Percent of Parent Disappearance Mean ± SD [5, 9]: 70.5±3.89%
